We go through seven molecules from ChEMBL document CHEMBL4680212, “Discovery of T-1101 tosylate as a first-in-class clinical candidate for Hec1/Nek2 inhibition in cancer therapy” (Eur J Med Chem, 2020).

Data set [1] can be described thus: Oral bioavailability in CD-1 mouse at 10 mg/kg administered as single dose via gavage by LC-MS/MS analysis. Format: ADME, organism-based. The following applies: in vivo.
Data set [2] can be described thus: AUC in CD-1 mouse at 10 mg/kg, po administered as single dose via gavage by LC-MS/MS analysis. It is filed as ADME, organism-based. Details: dose 10 mg/kg. As to conditions: in vivo.
Data set [3] can be described thus: Cmax in CD-1 mouse at 10 mg/kg, po administered as single dose via gavage by LC-MS/MS analysis. Format: ADME, organism-based. Details: route oral, dose 10 mg/kg. As to conditions: in vivo.
Data set [4] can be described thus: Tmax in Beagle dog at 10 mg/kg, po administered as single dose via gavage by LC-MS/MS analysis. Format: ADME, organism-based, Canis lupus familiaris. The following applies: in vivo.
A short description of data set [5]: AUC in Beagle dog at 10 mg/kg, po administered as single dose via gavage by LC-MS/MS analysis. It is filed as ADME, organism-based, Canis lupus familiaris. Further details: dose 10 mg/kg. As to conditions: in vivo.
The nature of data set [6]: Half life in Beagle dog at 10 mg/kg, po administered as single dose via gavage by LC-MS/MS analysis. As to conditions: in vivo. Format: ADME, organism-based, Canis lupus familiaris.
Data set [7] can be described thus: Cmax in Beagle dog at 10 mg/kg, po administered as single dose via gavage by LC-MS/MS analysis. Further details: route oral, dose 10 mg/kg. As to conditions: in vivo. Format: ADME, organism-based, Canis lupus familiaris.
Data set [8] is described as follows: Oral bioavailability in Beagle dog at 10 mg/kg administered as single dose via gavage by LC-MS/MS analysis. As to conditions: in vivo. Format: ADME, organism-based, Canis lupus familiaris.
Data set [9] is described as follows: Tmax in CD-1 mouse at 10 mg/kg, po administered as single dose via gavage by LC-MS/MS analysis. Format: ADME, organism-based. As to conditions: in vivo.
Data set [10] can be described thus: Half life in CD-1 mouse at 10 mg/kg, po administered as single dose via gavage by LC-MS/MS analysis. It is filed as ADME, organism-based. As to conditions: in vivo.
The subject of data set [11] is HeLa. Put plainly: Induction of apoptosis in human HeLa cells assessed as decrease in XIAP expression at 1 uM measured after 24 hrs by Western blot analysis. It is filed as functional, cell-based. A general note: A western blot detects proteins with antibodies after separation by electrophoresis.
Data set [12] concerns the target T1, HEC1/NEK2 (Homo sapiens) (UniProt P51955+O14777). Put plainly: Inhibition of Hec1-Nek2 protein-protein interaction in human K562 cells assessed as reduction in Nek2 level at 1 uM by Western blot analysis. Format: cell-based. As to conditions: TDE = time-dependent effect.
Data set [13] deals with HeLa. Briefly: Induction of apoptosis in human HeLa cells assessed as decrease in cyclin D1 expression at 1 uM measured after 24 hrs by Western blot analysis. Format: functional, cell-based.
In a further data set the test system is MES-SA/Dx5. Put plainly: Antiproliferative activity against human MES-SA/Dx5 cells measured after 96 hrs by CellTiter 96 Aqueous One Solution Reagent based assay. It is filed as functional, cell-based.
The subject of data set [14] is HeLa. Briefly: Induction of apoptosis in human HeLa cells assessed as decrease in cyclin B1 expression at 1 uM measured after 24 hrs by Western blot analysis. It is filed as functional, cell-based.
Data set [15] has as its system HeLa. Put plainly: Induction of apoptosis in human HeLa cells assessed as increase in cleaved caspase 3 protein expression at 1 uM measured after 24 hrs by Western blot analysis. Format: functional, cell-based.
Data set [16] relates to HeLa. Briefly: Induction of apoptosis in human HeLa cells assessed as decrease in Mcl-1 expression at 1 uM measured after 24 hrs by Western blot analysis. Format: functional, cell-based.
In data set [17] the target is T1, HEC1/NEK2 (Homo sapiens). Briefly: Inhibition of Hec1-Nek2 protein-protein interaction in human K562 cells at 100 nM measured after 6 hrs by coimmunoprecipitation assay. Format: cell-based.
The subject of data set [18] is HeLa. Briefly: Induction of apoptosis in human HeLa cells assessed as decrease in cyclin A1 expression at 1 uM measured after 24 hrs by Western blot analysis. Format: functional, cell-based.
Data set [19] relates to HeLa. Briefly: Induction of apoptosis in human HeLa cells assessed as increase in cleaved PARP protein expression at 1 uM measured after 24 hrs by Western blot analysis. Format: functional, cell-based.
The test system of data set [20] is HeLa. Put plainly: Down regulation of Pgp expression in human HeLa cells. Format: functional, cell-based.
A further data set relates to NCI/ADR-RES. Put plainly: Antiproliferative activity against human NCI/ADR-RES cells measured after 96 hrs by CellTiter 96 Aqueous One Solution Reagent based assay. Format: functional, cell-based.
The subject of data set [21] is MDA-MB-231. Briefly: Down regulation of Pgp expression in human MDA-MB-231 cells. It is filed as functional, cell-based.
Data set [22] concerns HeLa. Briefly: Antiproliferative activity against human HeLa cells measured after 96 hrs by CellTiter 96 Aqueous One Solution Reagent based assay. Format: functional, cell-based.
Data set [23] has as its system K562. Put plainly: Antiproliferative activity against human K562 cells measured after 96 hrs by CellTiter 96 Aqueous One Solution Reagent based assay. Format: functional, cell-based. As to conditions: K562, 96 h.
Data set [24] has as its system MDA-MB-231. Put plainly: Antiproliferative activity against human MDA-MB-231 cells measured after 96 hrs by CellTiter 96 Aqueous One Solution Reagent based assay. It is filed as functional, cell-based. The following applies: MDA-MB-231, 96 h.
Another data set deals with MDA-MB-468. Put plainly: Antiproliferative activity against human MDA-MB-468 cells measured after 96 hrs by CellTiter 96 Aqueous One Solution Reagent based assay. It is filed as functional, cell-based. As to conditions: MDA-MB-468, 96 h.
For data set [25], the system named is MDA-MB-231. Put plainly: Antitumor activity against human MDA-MB-231 cells xenografted in SCID mouse assessed as tumor growth at 150 mg/kg, po administered twice daily for 28 days measured post last dose relative to control. As to conditions: time 28 day. Format: functional. (In xenograft studies the graft and the host belong to different species.)
The test system of data set [26] is K562. Briefly: Antiproliferative activity against human K562 cells measured after 96 hrs by MTT assay. The following applies: K562, 96 h. Format: functional, cell-based. In general terms: Formazan colour is commonly taken as a measure of viable cells.

As usually defined, the bioavailability is the share of a dose that reaches the circulation, judged against a reference dose that is usually intravenous. As usually defined, the AUC is the area under the concentration-time curve, a measure of exposure. Lower therefore signals low exposure. The term Cmax denotes the highest concentration seen after dosing. As a reminder, the Tmax is the time from dosing to the highest level. By half-life is commonly meant the time needed for the level to fall by half in the phase considered. A lower half-life goes with fast loss. A word on the IC50: it is the concentration that gives 50% inhibition. Higher therefore signals lower potency. A word on the T/C: it is the ratio of treated to control.

Active and inactive are the calls of the source.

T1 sequence (O14777 whole entry, looked up): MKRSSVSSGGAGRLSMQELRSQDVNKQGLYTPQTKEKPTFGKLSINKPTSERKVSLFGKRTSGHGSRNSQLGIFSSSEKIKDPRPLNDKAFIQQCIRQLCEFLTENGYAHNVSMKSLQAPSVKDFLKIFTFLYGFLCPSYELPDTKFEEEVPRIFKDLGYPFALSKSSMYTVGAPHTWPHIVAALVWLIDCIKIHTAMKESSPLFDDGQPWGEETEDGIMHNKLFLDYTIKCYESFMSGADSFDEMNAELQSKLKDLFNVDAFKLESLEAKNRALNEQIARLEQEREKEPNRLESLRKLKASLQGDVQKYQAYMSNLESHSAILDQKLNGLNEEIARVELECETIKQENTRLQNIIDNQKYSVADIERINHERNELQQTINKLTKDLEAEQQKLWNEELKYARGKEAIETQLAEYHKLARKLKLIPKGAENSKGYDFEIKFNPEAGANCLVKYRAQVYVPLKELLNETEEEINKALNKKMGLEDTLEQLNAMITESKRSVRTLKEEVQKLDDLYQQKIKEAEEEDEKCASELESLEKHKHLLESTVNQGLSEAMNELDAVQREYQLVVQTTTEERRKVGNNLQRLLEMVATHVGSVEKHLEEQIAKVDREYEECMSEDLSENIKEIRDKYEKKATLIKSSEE
T1 sequence (P51955 whole entry, looked up): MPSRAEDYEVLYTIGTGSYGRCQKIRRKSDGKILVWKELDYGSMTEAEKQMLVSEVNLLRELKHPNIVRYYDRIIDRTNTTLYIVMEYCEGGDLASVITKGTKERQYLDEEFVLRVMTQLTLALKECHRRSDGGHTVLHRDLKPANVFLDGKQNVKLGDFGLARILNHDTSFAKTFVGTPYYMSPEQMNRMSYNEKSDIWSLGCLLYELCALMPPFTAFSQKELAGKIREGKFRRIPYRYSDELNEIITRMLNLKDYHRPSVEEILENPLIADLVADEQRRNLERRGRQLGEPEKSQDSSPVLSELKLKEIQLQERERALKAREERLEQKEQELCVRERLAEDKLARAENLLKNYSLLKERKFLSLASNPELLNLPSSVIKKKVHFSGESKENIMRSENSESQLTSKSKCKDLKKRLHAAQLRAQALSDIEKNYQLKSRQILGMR

As to `COCCOc1cnc(Sc2cc(C)c(-c3csc(NC(=O)c4ccncc4)n3)c(C)c2)cn1.Cl`, in data set [1], the bioavailability turned out to be 84%. The molecule further gave an AUC in [2] of 50.9 µM·h.

With `COCCOc1cnc(Sc2cc(C)c(-c3csc(NC(=O)c4ccncc4)n3)c(C)c2)cn1.Cc1ccc(S(=O)(=O)O)cc1`, the maximum concentration (Cmax) in data set [3] stood at 8.13 µM; in data set [7] it was 0.98 µM. Besides, the time of peak concentration (Tmax) in data set [4] and in [9] was 1 h throughout. Moreover, the values for the bioavailability in data set [1] and in [8] were 77.4% and 24.9%, respectively. The AUC is 8.61 µM·h in [5] and 62.5 µM·h in data set [2]. Also, the half-life in data set [6] is 4.53 h; in data set [10], 2.81 h.

For `COCCOc1cnc(Sc2cc(C)c(-c3csc(NC(=O)c4ccncc4)n3)c(C)c2)cn1`, the result in the data set with HeLa [11], in the data set with HeLa [13], in the data set on MES-SA/Dx5, in the data set with HeLa [14], in the data set on HeLa [15] and in the data set with HeLa [16] was Active. In addition, the result in the data set on HeLa [18], in the data set on HeLa [19], in the data set on HeLa [20], in the data set on NCI/ADR-RES and with MDA-MB-231 [21] was Active. Further, on HEC1/NEK2 (Homo sapiens) [12], the Activity result was “Tde”. The inhibition entry at HEC1/NEK2 (Homo sapiens) [17] is “Active”.

Molecule `COCCOc1cnc(Sc2cc(C)c(-c3csc(NC(=O)c4ccncc4)n3)c(C)c2)cn1.CS(=O)(=O)O` yielded a Cmax in data set [3] of 8.44 µM. This molecule also yielded a bioavailability in data set [1] of 58.5%. Also, in data set [9], the time of peak concentration (Tmax) was 1.5 h. This molecule yielded an exposure (AUC) in data set [2] of 47.5 µM·h. In data set [10], this molecule had a half-life of 3.38 h.

Regarding `Cc1cc(Sc2cnc(OCCN(C)C)cn2)cc(C)c1-c1csc(NC(=O)c2ccncc2)n1`, the half-maximal inhibitory concentration (IC50) was 32.8 nM in the data set on HeLa [22], 59.2 nM in the data set on K562 [23], 94.5 nM in the data set with MDA-MB-231 [24] and 53.9 nM with MDA-MB-468. Further, in data set [2], the AUC came out at 13.9 µM·h.

As for `COc1ccc(Oc2cc(C)c(-c3csc(NC(=O)c4ccncc4)n3)c(C)c2)cc1`, in the data set with MDA-MB-231 [25], the T/C is 50%.

For `Cc1cc(C)c(-c2csc(NC(=O)/C=C/c3ccc(C(C)(C)C)cc3)n2)c(C)c1`, the concentration for half-maximal inhibition (IC50) in the data set with K562 [26] was determined as 790 nM.
